According to patent US8048889B2, “3,4-disubstituted coumarin and quinolone compounds” (XTL Biopharmaceuticals Ltd., priority 2005, dated 2011):

Assays:
[1] = system: HCV Replicon (HCV IRES driven luciferase reporter in Huh-Luc-Neo cells); test: HCV Replicon Luciferase Assay; type: cell-based; settings: Hepatitis C virus, 48 h, no unit in table, hit threshold in μM
Procedure: (§1) The identification of inhibitors of HCV replication and/or proliferation has been facilitated by the development of a cell based system to study HCV replication and assay for HCV inhibitors. Inhibition of HCV replication may be performed using the HCV Replicon Assay developed in the laboratories of Bartenschlager (Lohman et al, Science 285, 110-113, 1999) and Rice (Blight et al, Science 290, 1972-1974, 2000). The assay is performed using the Huh-Luc-Neo cell line (Lohman et al, Science 285, 110-113, 1999). Huh-Luc-Neo cells are a human hepatoma cell line (Huh-7) stably expressing a bi-cistronic subgenomic replicon containing the HCV IRES in which the structural proteins of HCV had been deleted and replaced by a construct containing sequences coding for the firefly luciferase reporter gene, the neomycin selectable marker and the EMCV IRES to direct expression of a truncated HCV genome expressing the […] NS3, NS4A, NS4B, NS5A, and NS5B. HCV targets through which inhibitors could act to inhibit replication include the NS3 protease, the helicase/ATPase, NS5A, the NS5B- RNA dependent RNA polymerase, and the HCV IRES.
(§2) Expression of HCV IRES driven luciferase reporter activity and HCV RNA is measured to obtain indirect and direct measures of replication of HCV RNA respectively. Inhibitors of HCV replication and/or proliferation are determined by initially identifying molecules that inhibit expression of the HCV IRES driven luciferase reporter in this HCV Replicon Luciferase Assay. Cell viability assays and control cell based luciferase assays are then run on hits identified in the HCV Replicon Luciferase Assay to eliminate cytoxic compounds and non-specific compounds which act by inhibiting the luciferase enzyme.
(§3) Day 0 Cell Seeding and Compound Treatment: Huh-Luc-Neo Cells are seeded at 25,000/well in an opaque-walled 96 plate with Growth Medium (DMEM phenol red free+PS+2 mM glutamine; 100 μl/well). The compounds to be tested are added to the experimental wells (10 μl/well at 10× assay concentration) and the cells are then incubated (5% CO2, 37° C.) for 48 h.
(§4) Day 2 Reagent Preparation and Luciferase Assay: The Bright-Glo Luciferase Assay Buffer (Promega) is thawed and equilibrated to room temperature prior to use. The lyophilized Bright-Glo Luciferase Assay Substrate is equilibrated to room temperature prior to use. 10 ml of Bright-Glo Luciferase Assay Buffer is transferred to 1 vial of Bright-Glo Luciferase Assay Substrate bottle and mixed by gently with a Vortex. 100 ul of Bright-Glo Luciferase Assay reagent (Bright-Glo Luciferase Assay Buffer+Bright-Glo Luciferase Assay Substrate Mixture) is added to each well. The well contents are mixed for 5 min. on an orbital shaker at room temperature to induce cell lysis and the luminescence is then measured using a luminometer. The data is analyzed and IC50s are determined using GraphPad Prism 4 software. Hits validated in the Replicon Luciferase assay have IC50s<8.0 μM and show<30% inhibition of Cell Viability at a compound concentration of 100 μM (Cell Titer Glow Assay, cell viability assay conditions identical to HCV Replicon Luciferase Assay conditions).

[2] = system: HCV Replicon (HCV RNA in Huh-Luc-Neo cells); test: HCV Replicon RNA Assay (Taqman); type: cell-based, Hepatitis C virus; settings: compound added day 0 and day 1, no unit in table, hit threshold in μM; for IC50: Hepatitis C virus
Procedure: as §1, §2
as §3, with “Day 0,” for “Day 0”, “37° C.).” for “37° C.) for 48 h.”
Day 1, Media Change and Compound Treatment: 24 hours after the initial compound treatment the cell culture media is aspirated from the wells and fresh Growth Medium is added (DMEM phenol red free+PS+2 mM glutamine; 100 μl/well). The compounds to be tested are then added to the appropriate experimental wells (10 μl/well at 10 × assay concentration) and the cells are then incubated (5% CO2, 37° C.) for an additional 24 hrs.
Day 2, RNA Isolation and cDNA Synthesis: The cells are washed with 1× Phosphate Buffered Saline (PBS) once.
(§5) Day 3, Quantitative PCR Based Measurement of HCV RNA (Taqman Assay): Quantitative PCR analysis to measure HCV RNA expression from cDNA synthesized on Day 2 is performed using the ABI 9700 HT Sequence Detection System (Applied Biosystems) as previously described (Lohman et al, Science 285, 110-113, 1999). The data is analyzed and IC50s are determined using GraphPad Prism 4 software. Hits validated in the Replicon RNA Assay have IC50s<8.0 μM and show <30% inhibition of Cell Viability at a compound concentration of 50 μM (Cell Titer Glow Assay, cell viability assay conditions identical to HCV Replicon RNA Assay conditions).

Huh-Luc-Neo cells = test: CellTiter-Glo Cell Viability Assay; type: cell-based, human; settings: for Toxicity % Inhibition at 50 uM (2 doses): inhibition of cell viability at 50 uM, conditions as in Replicon RNA Assay; for Toxicity % Inhibition at 100 um (1 dose): inhibition of cell viability at 100 um, conditions as in Replicon Luciferase Assay (48 h)
Procedure: as §4, §5
as §3, with “Day 0,” for “Day 0”, “100 ul/well).” for “100 μl/well).”, “tested for inhibition of cell viability” for “tested”
Day 2, Reagent Preparation and Assay: The CellTiter-Glo Buffer is thawed and equilibrated to room temperature prior to use. The lyophilized CellTiter-Glo Substrate is equilibrated to room temperature prior to use. 10 ml of CeliTiter-Glo Buffer is transferred to 1 vial of CellTiter-Glo Substrate and mixed by gently with a Vortex. 100 μl of CellTiter-Glo Assay reagent (CellTiter-Glo Buffer+CellTiter-Glo Substrate Mixture) is added to each well. The well contents are mixed for 5 min. on an orbital shaker at room temperature to induce cell lysis and the luminescence is then measured using a luminometer.

Row | Compound | IC50 [1] [µM] | IC50 [2] [µM] | Toxicity % Inhibition at 50 uM (2 doses) (Huh-Luc-Neo cells) [%] | Toxicity % Inhibition at 100 um (1 dose) (Huh-Luc-Neo cells) [%] | TaqMan IC50 [2]
1 | O=c1oc2ccccc2c(OCc2cccc(C(F)(F)F)c2)c1Cc1cccc(C(F)(F)F)c1 [VQ_31711] | 5.16 | 0.12 | 4.3 | 4.6 | 
2 | O=c1oc2ccccc2c(OCc2ccc(C(F)(F)F)cc2)c1Cc1ccc(C(F)(F)F)cc1 [VQ_31712] | 4.92 | > 30 | 10.0 | 16.6 | 
3 | Cc1ccc(COc2c(Cc3ccc(C)cc3)c(=O)oc3ccccc23)cc1 [VQ_31715] | 2.8 | 0.55 | 13.4 | 53.4 | 
4 | COc1ccc2c(OCc3cccc(C)c3)c(Cc3cccc(C)c3)c(=O)oc2c1 [VQ_31729] | 3.53 | 0.36 | 5.1 | 3.0 | 
5 | COc1ccc2c(OCc3cccc(Cl)c3)c(Cc3cccc(Cl)c3)c(=O)oc2c1 [VQ_31734] | 3.84 | 0.67 | 0.7 | 4.3 | 
6 | COc1ccc2c(OCc3ccccc3C)c(Cc3ccccc3C)c(=O)oc2c1 [VQ_31738] | 5.44 | 0.21 | 6.1 | 23.6 | 
7 | COc1ccc2c(OCc3ccc(F)cc3F)c(Cc3ccc(F)cc3F)c(=O)oc2c1 [VQ_31744] | 4.5 | 0.28 | 7.0 | 10.9 | 
8 | COc1ccc2c(OCc3ccc(F)c(F)c3)c(Cc3ccc(F)c(F)c3)c(=O)oc2c1 [VQ_31748] | 5.38 | 1.97 | 4.9 | 10.0 | 
9 | COc1ccc2c(OCc3cccc(C(F)(F)F)c3)c(Cc3cccc(C(F)(F)F)c3)c(=O)oc2c1 [VQ_31754] | 5.45 | 5.35 | 1.9 | 2.5 | 
10 | COc1ccc2c(OCc3ccc(C(F)(F)F)cc3)c(Cc3ccc(C(F)(F)F)cc3)c(=O)oc2c1 [VQ_31758] | 6.16 | 5.24 | 2.6 | 14.7 | 
11 | COc1ccc2c(OCc3ccc(C)cc3)c(Cc3ccc(C)cc3)c(=O)oc2c1 [VQ_31763] | 8.29 | 0.43 | 6.5 | 4.6 | 
12 | Cc1cc2oc(=O)c(Cc3ccc(F)cc3F)c(OCc3ccc(F)cc3F)c2cc1C [VQ_32806] | 5.57 | 1.4 | 8.3 | 16.5 | 
13 | Cc1ccc(COc2c(Cc3ccc(C)cc3)c(=O)n(C)c3ccccc23)cc1 [VQ_32833] | 2.89 | 0.58 | 20.7 | 34.6 | 
14 | Cc1ccc(COc2c(Cc3ccc(C)cc3)c(=O)n(Cc3ccc(C)cc3)c3ccccc23)cc1 [VQ_33645] | 2.33 | > 30 | 17.2 | 21.5 | 
15 | Cn1c(=O)c(Cc2ccc(Cl)c(Cl)c2)c(OCc2ccc(Cl)c(Cl)c2)c2ccccc21 [VQ_34453] | 8.5 | 1.97 | 12.2 | 24.6 | 
16 | O=c1[nH]c2ccccc2c(OCc2ccc(F)cc2)c1Cc1ccc(F)cc1 [VQ_35018] | 1 |  | 12.3 | 10.0 | Inactive
17 | Cc1cccc(COc2c(Cc3cccc(C)c3)c(=O)[nH]c3ccccc23)c1 [VQ_35027] | 2.1 |  | 12.5 | 4.6 | Inactive
